Source: PubChem BioAssay (NCI)
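GI50 = concentration required for 50% inhibition of growth. TGI marks complete inhibition of growth.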

Legend:
Experiment in all cases: DTP human tumour cell line panel, 384-well format
NCI-H226 lung = system: NCI-H226 lung
SN12C renal = system: SN12C renal
OVCAR-4 ovarian = system: OVCAR-4 ovarian
SK-MEL-2 melanoma = system: SK-MEL-2 melanoma
MOLT-4 leukemia = system: MOLT-4 leukemia
SR leukemia = system: SR leukemia
NCI-H522 lung = system: NCI-H522 lung
SF-539 CNS = system: SF-539 CNS
SF-295 CNS = system: SF-295 CNS
KM12 colon = system: KM12 colon
NCI-H322M lung = system: NCI-H322M lung
CAKI-1 renal = system: CAKI-1 renal
HL-60(TB) leukemia = system: HL-60(TB) leukemia
786-0 renal = system: 786-0 renal
A549 NSCLC = system: A549 NSCLC
NCI-H460 NSCLC = system: NCI-H460 NSCLC
SK-OV-3 ovarian = system: SK-OV-3 ovarian
DU-145 prostate = system: DU-145 prostate
CCRF-CEM leukemia = system: CCRF-CEM leukemia
HOP-92 NSCLC = system: HOP-92 NSCLC
HT29 colon = system: HT29 colon
HCT-15 colon = system: HCT-15 colon
MDA-MB-435 melanoma = system: MDA-MB-435 melanoma
OVCAR-5 ovarian = system: OVCAR-5 ovarian
RPMI-8226 leukemia = system: RPMI-8226 leukemia
A498 renal = system: A498 renal
NCI-H23 lung = system: NCI-H23 lung
HOP-62 NSCLC = system: HOP-62 NSCLC
MALME-3M melanoma = system: MALME-3M melanoma
SNB-75 CNS = system: SNB-75 CNS
MCF7 breast = system: MCF7 breast
BT-549 breast = system: BT-549 breast
U251 glioblastoma = system: U251 glioblastoma
RXF 393 renal = system: RXF 393 renal
MDA-MB-231 breast = system: MDA-MB-231 breast
SW-620 colon = system: SW-620 colon
TK-10 renal = system: TK-10 renal
MDA-MB-468 breast = system: MDA-MB-468 breast
SNB-19 CNS = system: SNB-19 CNS
IGROV1 ovarian = system: IGROV1 ovarian
T-47D breast = system: T-47D breast
UO-31 renal = system: UO-31 renal
UACC-257 melanoma = system: UACC-257 melanoma
SF-268 CNS = system: SF-268 CNS
SK-MEL-5 melanoma = system: SK-MEL-5 melanoma
UACC-62 melanoma = system: UACC-62 melanoma
OVCAR-3 ovarian = system: OVCAR-3 ovarian
ACHN renal = system: ACHN renal
COLO 205 colon = system: COLO 205 colon
K-562 leukemia = system: K-562 leukemia
HCC-2998 colon = system: HCC-2998 colon
NCI/ADR-RES ovarian = system: NCI/ADR-RES ovarian
LOX IMVI melanoma = system: LOX IMVI melanoma
HCT-116 colon = system: HCT-116 colon
PC-3 prostate = system: PC-3 prostate
HS 578T breast = system: HS 578T breast
M14 melanoma = system: M14 melanoma
SK-MEL-28 melanoma = system: SK-MEL-28 melanoma
EKVX NSCLC = system: EKVX NSCLC

CC(C)=CCC/C(C)=C/CC/C(C)=C/CSc1ccccc1C(=O)O
GI50 (NCI-H226 lung): > 100 µM
TGI (NCI-H226 lung): > 100 µM
GI50 (SN12C renal): > 100 µM
TGI (SN12C renal): > 100 µM
GI50 (OVCAR-4 ovarian): > 100 µM
TGI (OVCAR-4 ovarian): > 100 µM
GI50 (SK-MEL-2 melanoma): > 100 µM
TGI (SK-MEL-2 melanoma): > 100 µM
GI50 (MOLT-4 leukemia): 51.3 µM
TGI (MOLT-4 leukemia): > 100 µM
GI50 (SR leukemia): 54.2 µM
TGI (SR leukemia): > 100 µM
GI50 (NCI-H522 lung): 16.2 µM
TGI (NCI-H522 lung): 43.6 µM
GI50 (SF-539 CNS): > 100 µM
TGI (SF-539 CNS): > 100 µM
GI50 (SF-295 CNS): > 100 µM
TGI (SF-295 CNS): > 100 µM
GI50 (KM12 colon): > 100 µM
TGI (KM12 colon): > 100 µM
GI50 (NCI-H322M lung): > 100 µM
TGI (NCI-H322M lung): > 100 µM
GI50 (CAKI-1 renal): > 100 µM
TGI (CAKI-1 renal): > 100 µM
GI50 (HL-60(TB) leukemia): 83.7 µM
TGI (HL-60(TB) leukemia): > 100 µM
GI50 ([…]-0 renal): > 100 µM
TGI (786-0 renal): > 100 µM
GI50 (A549 NSCLC): 90.1 µM
TGI (A549 NSCLC): > 100 µM
GI50 (NCI-H460 NSCLC): > 100 µM
TGI (NCI-H460 NSCLC): > 100 µM
GI50 (SK-OV-3 ovarian): > 100 µM
TGI (SK-OV-3 ovarian): > 100 µM
GI50 (DU-145 prostate): > 100 µM
TGI (DU-145 prostate): > 100 µM
GI50 (CCRF-CEM leukemia): 45.2 µM
TGI (CCRF-CEM leukemia): > 100 µM
GI50 (HOP-92 NSCLC): > 100 µM
TGI (HOP-92 NSCLC): > 100 µM
GI50 (HT29 colon): > 100 µM
TGI (HT29 colon): > 100 µM
GI50 (HCT-15 colon): 73.3 µM
TGI (HCT-15 colon): > 100 µM
GI50 (MDA-MB-435 melanoma): > 100 µM
TGI (MDA-MB-435 melanoma): > 100 µM
GI50 (OVCAR-5 ovarian): > 100 µM
TGI (OVCAR-5 ovarian): > 100 µM
GI50 (RPMI-8226 leukemia): 47.9 µM
TGI (RPMI-8226 leukemia): > 100 µM
GI50 (A498 renal): > 100 µM
TGI (A498 renal): > 100 µM
GI50 (NCI-H23 lung): > 100 µM
TGI (NCI-H23 lung): > 100 µM
GI50 (HOP-62 NSCLC): > 100 µM
TGI (HOP-62 NSCLC): > 100 µM
GI50 (MALME-3M melanoma): > 100 µM
TGI (MALME-3M melanoma): > 100 µM
GI50 (SNB-75 CNS): > 100 µM
TGI (SNB-75 CNS): > 100 µM
GI50 (MCF7 breast): > 100 µM
TGI (MCF7 breast): > 100 µM
GI50 (BT-549 breast): > 100 µM
TGI (BT-549 breast): > 100 µM
GI50 (U251 glioblastoma): > 100 µM
TGI (U251 glioblastoma): > 100 µM
GI50 (RXF 393 renal): 70.4 µM
TGI (RXF 393 renal): > 100 µM
GI50 (MDA-MB-231 breast): > 100 µM
TGI (MDA-MB-231 breast): > 100 µM
GI50 (SW-620 colon): > 100 µM
TGI (SW-620 colon): > 100 µM
GI50 (TK-10 renal): > 100 µM
TGI (TK-10 renal): > 100 µM
GI50 (MDA-MB-468 breast): > 100 µM
TGI (MDA-MB-468 breast): > 100 µM
GI50 (SNB-19 CNS): > 100 µM
TGI (SNB-19 CNS): > 100 µM
GI50 (IGROV1 ovarian): > 100 µM
TGI (IGROV1 ovarian): > 100 µM
GI50 (T-47D breast): > 100 µM
TGI (T-47D breast): > 100 µM
GI50 (UO-31 renal): > 100 µM
TGI (UO-31 renal): > 100 µM
GI50 (UACC-257 melanoma): > 100 µM
TGI (UACC-257 melanoma): > 100 µM
GI50 (SF-268 CNS): > 100 µM
TGI (SF-268 CNS): > 100 µM
GI50 (SK-MEL-5 melanoma): > 100 µM
TGI (SK-MEL-5 melanoma): > 100 µM
GI50 (UACC-62 melanoma): > 100 µM
TGI (UACC-62 melanoma): > 100 µM
GI50 (OVCAR-3 ovarian): > 100 µM
TGI (OVCAR-3 ovarian): > 100 µM
GI50 (ACHN renal): > 100 µM
TGI (ACHN renal): > 100 µM
GI50 (COLO 205 colon): > 100 µM
TGI (COLO 205 colon): > 100 µM
GI50 (K-562 leukemia): > 100 µM
TGI (K-562 leukemia): > 100 µM
GI50 (HCC-2998 colon): > 100 µM
TGI (HCC-2998 colon): > 100 µM
GI50 (NCI/ADR-RES ovarian): > 100 µM
TGI (NCI/ADR-RES ovarian): > 100 µM
GI50 (LOX IMVI melanoma): > 100 µM
TGI (LOX IMVI melanoma): > 100 µM
GI50 (HCT-116 colon): > 100 µM
TGI (HCT-116 colon): > 100 µM
GI50 (PC-3 prostate): > 100 µM
TGI (PC-3 prostate): > 100 µM
GI50 (HS 578T breast): > 100 µM
TGI (HS 578T breast): > 100 µM
GI50 (M14 melanoma): > 100 µM
TGI (M14 melanoma): > 100 µM
GI50 (SK-MEL-28 melanoma): > 100 µM
TGI (SK-MEL-28 melanoma): > 100 µM
GI50 (EKVX NSCLC): > 100 µM
TGI (EKVX NSCLC): > 100 µM
